Assay results: ChEMBL document CHEMBL1136524, “Substituted 2-pyridinemethanol derivatives as potent and selective phosphodiesterase-4 inhibitors” (Bioorg Med Chem Lett, 2003)

Key:
[1] = Maximal plasma concentration in squirrel monkeys; type: ADME, organism-based
[2] = Oral bioavailability in rat; type: ADME, organism-based; details: in vivo
[3] = Half life period was determined in squirrel monkey after iv administration at a dose of 5 mg/kg; type: ADME, organism-based; parameters: dose 5 mg/kg, route intravenous; details: in vivo
Ovis aries [4] = assay: Inhibition of ascaris-induced bronchoconstriction in conscious sheep at 0.5 mg/kg iv dose at early phase; type: functional
[5] = Oral bioavailability in squirrel monkey at a dose of 10 mg/kg; type: ADME, organism-based, Saimiri sciureus; details: in vivo
Ovis aries [6] = assay: Inhibition of ascaris-induced bronchoconstriction in conscious sheep at 0.5 mg/kg iv dose late phase; type: functional
Cavia porcellus = assay: Inhibition of ovalbumin induced bronchoconstriction in conscious guinea pig after ip administration at 0.3 mg/kg (0.5 hr pre-treatment); type: functional; details: route intraperitoneal
Homo sapiens = organism: Homo sapiens; assay: Ability to inhibit LPS-induced TNF-alpha formation in human whole blood (HWB); type: functional, organism-based
[7] = Half life period was determined in rat after iv administration at a dose of 5 mg/kg; type: ADME, organism-based; parameters: dose 5 mg/kg, route intravenous; details: in vivo
[8] = target: T1, 3',5'-cyclic-AMP phosphodiesterase 4A (Homo sapiens, UniProt P27815); assay: In vitro inhibitory activity against Phosphodiesterase 4A (PDE4)
T1 sequence (P27815 whole entry): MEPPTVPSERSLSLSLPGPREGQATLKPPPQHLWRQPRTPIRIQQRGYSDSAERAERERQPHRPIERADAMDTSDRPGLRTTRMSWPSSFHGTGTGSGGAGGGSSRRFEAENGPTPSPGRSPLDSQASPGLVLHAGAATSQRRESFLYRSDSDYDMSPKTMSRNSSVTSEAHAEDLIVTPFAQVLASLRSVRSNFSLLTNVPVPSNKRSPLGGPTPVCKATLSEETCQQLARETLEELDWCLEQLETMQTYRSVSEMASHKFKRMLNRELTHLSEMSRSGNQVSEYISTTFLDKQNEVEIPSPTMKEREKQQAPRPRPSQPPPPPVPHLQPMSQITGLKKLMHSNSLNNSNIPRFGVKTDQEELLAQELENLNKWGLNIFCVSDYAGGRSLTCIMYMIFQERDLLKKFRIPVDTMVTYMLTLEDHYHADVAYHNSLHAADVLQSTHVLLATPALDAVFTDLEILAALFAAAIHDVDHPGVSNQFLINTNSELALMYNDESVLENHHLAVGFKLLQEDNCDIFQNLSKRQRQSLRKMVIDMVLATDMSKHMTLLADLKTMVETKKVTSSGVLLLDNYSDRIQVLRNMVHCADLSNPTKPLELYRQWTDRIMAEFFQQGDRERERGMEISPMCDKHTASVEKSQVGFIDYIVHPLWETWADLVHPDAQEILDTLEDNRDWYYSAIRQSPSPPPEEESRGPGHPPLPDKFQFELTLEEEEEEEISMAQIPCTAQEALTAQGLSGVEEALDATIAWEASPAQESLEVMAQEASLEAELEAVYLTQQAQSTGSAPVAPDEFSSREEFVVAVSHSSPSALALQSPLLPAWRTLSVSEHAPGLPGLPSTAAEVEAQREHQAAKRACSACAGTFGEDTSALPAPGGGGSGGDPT

[9] = target: T1, 3',5'-cyclic-AMP phosphodiesterase 4A; assay: Inhibition of Phosphodiesterase-4A (PDE4)

| IC50 [8] [µM] | IC50 (Homo sapiens; Homo sapiens, Blood) [µM] | Structure (SMILES) | other results |
| --- | --- | --- | --- |
| 0.001 | – | CC(O)(c1ccccc1)c1ccc(C(Cc2cc[n+]([O-])cc2)c2ccc(OC(F)F)c(OC(F)F)c2)cn1 (single isomer, unassigned; diastereomer 2) | Inhibition (Cavia porcellus): 34%; IC50 (Homo sapiens): 0.11 µM |
| 0.0008 | 0.55 | [O-][n+]1ccc(CC(c2ccc(C(O)(c3ccccc3)c3ccccc3)nc2)c2ccc(OC(F)F)c(OC(F)F)c2)cc1 (configuration not stated) | – |
| 0.0006 | – | CC(O)(c1ccccc1)c1ccc(C(Cc2cc[n+]([O-])cc2)c2ccc(OC(F)F)c(OC(F)F)c2)cn1 (racemic) | IC50 (Homo sapiens): 0.35 µM |
| 0.006 | 0.34 | CCCCC(C)(O)c1ccc(C(Cc2cc[n+]([O-])cc2)c2ccc(OC(F)F)c(OC(F)F)c2)cn1 (configuration not stated) | – |
| 0.048 | – | CC(O)(c1ccccc1)c1ccc(C(Cc2cc[n+]([O-])cc2)c2ccc(OC(F)F)c(OC(F)F)c2)cn1 (mixture of isomers) | IC50 (Homo sapiens): 3.5 µM |
| – | 0.6 | O=C(c1ccccc1)c1ccc(C(Cc2cc[n+]([O-])cc2)c2ccc(OC(F)F)c(OC(F)F)c2)cn1 (configuration not stated) | IC50 [9]: 0.023 µM |

Second part, the molecule before the results:

| Structure (SMILES) | IC50 [8] [µM] | IC50 (Homo sapiens; Homo sapiens, Blood) [µM] | other results |
| --- | --- | --- | --- |
| CC(O)(c1ccccc1)c1ccc(C(Cc2cc[n+]([O-])cc2)c2ccc(OC(F)F)c(OC(F)F)c2)cn1 (single isomer, unassigned; diastereomer 1) | 0.002 | – | Cmax [1]: 2.2 µM; bioavailability [2]: 57%; half-life [3]: 2.2 h; inhibition in vivo at 0.5 mg/kg (Ovis aries [4]): 33%; bioavailability [5]: 73%; inhibition in vivo at 0.5 mg/kg (Ovis aries [6]): 91%; Inhibition (Cavia porcellus): 62%; IC50 (Homo sapiens): 0.16 µM; half-life [7]: 1.5 h |
| CC(O)(c1ccc(C(Cc2cc[n+]([O-])cc2)c2ccc(OC(F)F)c(OC(F)F)c2)cn1)c1nccs1 (configuration not stated) | 0.006 | 0.49 | – |
| [O-][n+]1ccc(CC(c2ccc(C(O)c3ccccc3)nc2)c2ccc(OC(F)F)c(OC(F)F)c2)cc1 (configuration not stated) | – | 0.36 | IC50 [9]: 0.006 µM |
| CCC(O)(c1ccccc1)c1ccc(C(Cc2cc[n+]([O-])cc2)c2ccc(OC(F)F)c(OC(F)F)c2)cn1 (configuration not stated) | – | 0.16 | IC50 [9]: 0.001 µM |
| CC(O)(c1ccc(C(Cc2cc[n+]([O-])cc2)c2ccc(OC(F)F)c(OC(F)F)c2)cn1)C1CCCCC1 (configuration not stated) | 0.0012 | 0.3 | – |
| [O-][n+]1ccc(CC(c2ccc(Cc3ccccc3)nc2)c2ccc(OC(F)F)c(OC(F)F)c2)cc1 (configuration not stated) | 0.003 | 0.77 | – |
| [O-][n+]1ccc(CC(c2ccc(C(O)(c3ccccc3)C(F)(F)F)nc2)c2ccc(OC(F)F)c(OC(F)F)c2)cc1 (configuration not stated) | 0.0024 | 0.46 | – |
| COc1ccc([C@H](Cc2ccncc2)c2ccccc2)cc1OC1CCCC1 [CDP840] | – | 16 | – |
| CC(C)C(O)(c1ccccc1)c1ccc(C(Cc2cc[n+]([O-])cc2)c2ccc(OC(F)F)c(OC(F)F)c2)cn1 (configuration not stated) | 0.0008 | 0.37 | – |
| CC(=O)c1ccc(C(Cc2cc[n+]([O-])cc2)c2ccc(OC(F)F)c(OC(F)F)c2)cn1 (configuration not stated) | 0.102 | 2.2 | – |
| CC(C)(O)c1ccc(C(Cc2cc[n+]([O-])cc2)c2ccc(OC(F)F)c(OC(F)F)c2)cn1 (configuration not stated) | 0.04 | 0.89 | – |
